Results published in ChEMBL document CHEMBL6103579, “Antiproliferative activity of selenium-enriched coumarin derivatives on the SK-N-SH neuroblastoma cell line: Mechanistic insights” (Eur J Med Chem, 2025).
The source made the active and inactive calls. No cut-off for these calls is given here.

Experiments:
[1] = Antiproliferative activity against human Embryonic lung cell assessed as inhibition of cell growth incubated for 60 hrs by CCK-8 method; format: toxicity, cell-based
[2] = test system: Neuroblastoma cell; test: Antiproliferative activity against human Neuroblastoma cell assessed as inhibition of cell growth incubated for 60 hrs by CCK-8 method; format: functional, cell-based

| Structure (SMILES) | Activity [1] | Activity [2] |
| --- | --- | --- |
| COc1ccc(C2CC(c3ccc(F)cc3)=NN2C(=O)c2cc3ccc(OCCC[Se]C#N)cc3oc2=O)cc1 (centres undefined) | Non-toxic | Active |
| N#C[Se]CCCOc1ccc2cc(C(=O)N3N=C(c4ccc(Br)cc4)CC3c3ccc(F)cc3)c(=O)oc2c1 (centres undefined) | Non-toxic | Active |
